Measured values published in the NIST ThermoML archive (doi:10.1016/j.jct.2015.03.001).

Key:
[1] = refractive index (Na D-line) (dimensionless); xn = mol fraction of the nth substance listed; settings: 99 kPa, Liquid, Abbe refractometer
[2] = relative permittivity at various frequencies (dimensionless); xn = mol fraction of the nth substance listed; settings: 99 kPa, Liquid, Frequency=2 MHz, Parallel plate capacitor

CCCCCl [1-chlorobutane] + CCCCCCC
Settings	refractive index, 283.15 K	refractive index, 298.15 K	refractive index, 313.15 K	relative permittivity, 283.15 K	relative permittivity, 298.15 K	relative permittivity, 313.15 K
[1], x2 = 0	1.4075	1.3995	1.39131	–	–	–
[1], x2 = 0.0503	1.40636	1.39837	1.39019	–	–	–
[1], x2 = 0.1023	1.40522	1.39724	1.38907	–	–	–
[1], x2 = 0.201	1.40318	1.39522	1.38708	–	–	–
[1], x2 = 0.3012	1.40132	1.39338	1.38527	–	–	–
[1], x2 = 0.4003	1.39966	1.39175	1.38367	–	–	–
[1], x2 = 0.4985	1.3982	1.39033	1.38227	–	–	–
[1], x2 = 0.5963	1.39694	1.38909	1.38108	–	–	–
[1], x2 = 0.7037	1.39573	1.38793	1.37996	–	–	–
[1], x2 = 0.82	1.39458	1.38682	1.3789	–	–	–
[1], x2 = 0.9094	1.39373	1.386	1.37811	–	–	–
[1], x2 = 0.949	1.39337	1.38565	1.37778	–	–	–
[2], x2 = 0	–	–	–	7.552	7.157	6.757
[2], x2 = 0.0484	–	–	–	7.201	6.84	6.47
[2], x2 = 0.101	–	–	–	6.808	6.475	6.132
[2], x2 = 0.1965	–	–	–	6.051	5.77	5.492
[2], x2 = 0.2708	–	–	–	5.486	5.243	5.005
[2], x2 = 0.4005	–	–	–	4.601	4.417	4.237
[2], x2 = 0.5038	–	–	–	3.999	3.855	3.715
[2], x2 = 0.5995	–	–	–	3.52	3.404	3.299
[2], x2 = 0.6978	–	–	–	3.089	3.001	2.921
[2], x2 = 0.805	–	–	–	2.665	2.608	2.545
[2], x2 = 0.897	–	–	–	2.327	2.287	2.247
[2], x2 = 0.9475	–	–	–	2.138	2.112	2.079

CC(C)(C)Cl [2-chloro-2-methylpropane] + CCCCCC
Settings	refractive index, 283.15 K	refractive index, 298.15 K	refractive index, 313.15 K	relative permittivity, 283.15 K	relative permittivity, 298.15 K	relative permittivity, 313.15 K
[1], x2 = 0	1.39115	1.38225	1.37312	–	–	–
[1], x2 = 0.048	1.39005	1.38118	1.37209	–	–	–
[1], x2 = 0.0978	1.38908	1.38022	1.37118	–	–	–
[1], x2 = 0.1998	1.38741	1.3786	1.36961	–	–	–
[1], x2 = 0.3018	1.38592	1.37722	1.36829	–	–	–
[1], x2 = 0.405	1.38463	1.37598	1.36716	–	–	–
[1], x2 = 0.5059	1.38354	1.37491	1.36616	–	–	–
[1], x2 = 0.6043	1.38258	1.37407	1.3654	–	–	–
[1], x2 = 0.7077	1.38181	1.37335	1.36477	–	–	–
[1], x2 = 0.806	1.38122	1.37282	1.36433	–	–	–
[1], x2 = 0.9095	1.38081	1.37249	1.36409	–	–	–
[1], x2 = 0.95	1.38066	1.37236	1.36401	–	–	–
[2], x2 = 0	–	–	–	10.429	9.67	8.952
[2], x2 = 0.0467	–	–	–	9.841	9.132	8.468
[2], x2 = 0.099	–	–	–	9.191	8.543	7.946
[2], x2 = 0.2084	–	–	–	7.892	7.37	6.883
[2], x2 = 0.2972	–	–	–	6.892	6.468	6.073
[2], x2 = 0.399	–	–	–	5.897	5.552	5.239
[2], x2 = 0.4982	–	–	–	5.016	4.749	4.514
[2], x2 = 0.6015	–	–	–	4.212	4.01	3.842
[2], x2 = 0.7009	–	–	–	3.543	3.398	3.283
[2], x2 = 0.8046	–	–	–	2.928	2.833	2.749
[2], x2 = 0.8999	–	–	–	2.417	2.362	2.308
[2], x2 = 0.9502	–	–	–	2.149	2.116	2.08

CC(C)(C)Cl [2-chloro-2-methylpropane] + CCCCCCC
Settings	refractive index, 283.15 K	refractive index, 298.15 K	refractive index, 313.15 K	relative permittivity, 283.15 K	relative permittivity, 298.15 K	relative permittivity, 313.15 K
[1], x2 = 0	1.39115	1.38225	1.37312	–	–	–
[1], x2 = 0.0511	1.39054	1.38172	1.37267	–	–	–
[1], x2 = 0.0962	1.39025	1.38149	1.37249	–	–	–
[1], x2 = 0.1985	1.38996	1.3813	1.37238	–	–	–
[1], x2 = 0.2955	1.38988	1.38132	1.37254	–	–	–
[1], x2 = 0.3985	1.39001	1.38159	1.37294	–	–	–
[1], x2 = 0.4985	1.39024	1.38196	1.37347	–	–	–
[1], x2 = 0.5996	1.39059	1.38244	1.37414	–	–	–
[1], x2 = 0.7039	1.39105	1.38306	1.37492	–	–	–
[1], x2 = 0.8032	1.39164	1.38375	1.37573	–	–	–
[1], x2 = 0.9039	1.39225	1.38447	1.37653	–	–	–
[1], x2 = 0.9618	1.39267	1.38492	1.37703	–	–	–
[2], x2 = 0	–	–	–	10.429	9.67	8.952
[2], x2 = 0.0506	–	–	–	9.787	9.1	8.449
[2], x2 = 0.1035	–	–	–	9.109	8.485	7.907
[2], x2 = 0.2006	–	–	–	7.895	7.373	6.892
[2], x2 = 0.3012	–	–	–	6.721	6.293	5.932
[2], x2 = 0.3976	–	–	–	5.754	5.41	5.118
[2], x2 = 0.504	–	–	–	4.827	4.566	4.34
[2], x2 = 0.6015	–	–	–	4.103	3.914	3.747
[2], x2 = 0.6988	–	–	–	3.472	3.341	3.226
[2], x2 = 0.8014	–	–	–	2.905	2.819	2.749
[2], x2 = 0.9027	–	–	–	2.407	2.359	2.322
[2], x2 = 0.9444	–	–	–	2.209	2.173	2.144
